The text below walks through data of ChEMBL document CHEMBL1938267, “Capturing of the free cysteine residue in the ligand-binding site by affinity labeling of the ORL1 nociceptin receptor” (Bioorg Med Chem, 2011).

Assay [1] deals with COS-7. Description: Binding affinity to rat Galpha-fused ORL1 receptor expressed in african green monkey COS7 cells at 100 uM after 90 mins. The class given is cell-based.
Assay [2] can be described thus: Binding affinity to rat Galpha-fused ORL1 receptor expressed in african green monkey COS7 cells after 90 mins. The settings on record: cos-7. The class given is cell-based.
The species entered for assay [3] is Rattus norvegicus. Description: Agonist activity at rat Galpha-fused ORL1 receptor at 10 uM by [35S]GTPgammaS binding assay relative to nociceptin. The class given is functional. (In general: GTPγS resists hydrolysis and so accumulates on activated G proteins.)
The subject of assay [4] is COS-7. The assay can be described thus: Displacement of [3H]nociceptin from rat Galpha-fused ORL1 receptor expressed in african green monkey COS7 cells preincubated with 100 uM N-ethylmaleimide for 90 mins measured after 90 mins. The class given is cell-based.
Assay [5] can be described thus: Displacement of [3H]nociceptin from rat Galpha-fused ORL1 receptor expressed in african green monkey COS7 cells. The class given is cell-based. As to conditions: cos-7. In general terms: In a radioligand displacement assay an active substance lowers the binding of a labelled ligand.
The species entered for assay [6] is Rattus norvegicus. Description: Antagonist activity at rat Galpha-fused ORL1 receptor assessed as reduction of receptor agonist nociceptin-induced [35S]GTPgammaS binding at 10 uM. The class given is functional.
In assay [7] the test system is COS-7. Description: Binding affinity to rat Galpha-fused ORL1 receptor expressed in african green monkey COS7 cells at 5 uM after 90 mins. The class given is cell-based.
Assay [8] deals with COS-7. The assay can be described thus: Displacement of [3H]nociceptin from rat Galpha-fused ORL1 receptor expressed in african green monkey COS7 cells preincubated with 5 uM Cys(Npys)-RYYRIK-NH2 for 90 mins measured after 90 mins. The class given is cell-based.
For assay [9], the system named is COS-7. The assay can be described thus: Ratio of NEM EC50 to compound EC50 for binding affinity to rat Galpha-fused ORL1 receptor expressed in african green monkey COS7 cells. The class given is cell-based.
The species entered for assay [10] is Rattus norvegicus. The assay can be described thus: Agonist activity at rat Galpha-fused ORL1 receptor by [35S]GTPgammaS binding assay relative to nociceptin. The class given is functional.

In general, EC50 refers to the concentration giving half of the maximal effect. As a reminder, the IC50 is the midpoint of a concentration-inhibition curve.

Activity calls are given as the source filed them. The rule behind the calls is not given here. Peptide text beside a SMILES is read from it. * marks the point of attachment. Npys = O=[N+]([O-])c1cccnc1S*

As to `CCN1C(=O)C=CC1=O` [N-ETHYLMALEIMIDE], the Activity in the assay with COS-7 [1] worked out at 65%. Besides, it took 43.7 µM to reach a half-maximal effect in [2] (EC50).

As for `CC[C@H](C)[C@H](NC(=O)[C@H](CCCN=C(N)N)NC(=O)[C@H](Cc1ccc(O)cc1)NC(=O)[C@H](Cc1ccc(O)cc1)NC(=O)[C@H](CCCN=C(N)N)NC(C)=O)C(=O)N[C@@H](CCCCN)C(N)=O`, the Activity in the assay filed under Rattus norvegicus [3] worked out at 60%. For the same molecule, the outcome in the assay on COS-7 [4] was Active.

`CC(C)C[C@H](NC(=O)[C@H](CCCCN)NC(=O)[C@H](CCCNC(=N)N)NC(=O)[C@H](C)NC(=O)[C@H](CO)NC(=O)[C@H](CCCCN)NC(=O)[C@H](CCCNC(=N)N)NC(=O)[C@H](C)NC(=O)CNC(=O)[C@@H](NC(=O)[C@H](Cc1ccccc1)NC(=O)CNC(=O)CNC(=O)[C@@H](N)Cc1ccccc1)[C@@H](C)O)C(=O)N[C@@H](C)C(=O)N[C@@H](CC(N)=O)C(=O)N[C@@H](CCC(N)=O)C(=O)O` [NOCICEPTIN] returned a 50% inhibitory concentration (IC50) in assay [5] of 0.00052 µM. Moreover, the result in the assay on COS-7 [4] was Active.

As to `CC[C@H](C)[C@H](NC(=O)[C@H](CCCNC(=N)N)NC(=O)[C@H](Cc1ccc(O)cc1)NC(=O)[C@H](Cc1ccc(O)cc1)NC(=O)[C@H](CCCNC(=N)N)NC(=O)[C@@H](N)CSSc1ncccc1[N+](=O)[O-])C(=O)N[C@@H](CCCCN)C(N)=O` (H-C(Npys)RYYRIK-NH2), the IC50 in [5] is 0.133 µM. The Activity in the assay listed under Rattus norvegicus [3] worked out at 5%; in the assay on COS-7 [7], 60%. For the same molecule, the outcome in the assay listed under Rattus norvegicus [6] and in the assay on COS-7 [8] was Active. This molecule also registered a concentration for a half-maximal effect (EC50) in assay [2] of 1.9 µM. Further, the Ratio EC50 in the assay on COS-7 [9] turned out to be 23. For the same molecule, the outcome in the assay filed under Rattus norvegicus [10] was inactive.
